Data from paper PMC9325269, “New Polymethoxyflavones from Hottonia palustris Evoke DNA Biosynthesis-Inhibitory Activity in An Oral Squamous Carcinoma (SCC-25) Cell Line” (Molecules, 2022).
Read-outs that look alike come from different tables or passages of the source.

What was measured:
[1] = system: human tongue squamous carcinoma cells SCC-25; assay: MTT cell viability assay, SCC-25 cells; format: cell-based; conditions: read-out: IC50 of viability, SCC-25
Method: (§1) The cell viability and proliferation assays were performed on the human tongue squamous cell line (SCC-25). The cells were obtained from ATCC (CRL-1628, American Type Culture Collection, Manassas, VA, USA) and cultured in a 1:1 mixture of DMEM (Dulbecco’s minimal essential medium) and Ham’s F12 medium (Thermo Fisher Scientific, Waltham, MA, USA, 31330038) supplemented with 400 ng/mL hydrocortisone (Sigma-Aldrich, Burlington, MA, USA, H0135), 10% FBS (fetal bovine serum, Thermo Fisher Scientific, Waltham, MA, USA, 10270106), and penicillin–streptomycin solution (Thermo Fisher Scientific, Waltham, MA, USA, 15140122). Furthermore, for the cytotoxicity assay, human skin fibroblasts (CCD25Sk) cultured in DMEM (Thermo Fisher Scientific, Waltham, MA, USA, 41966029) supplemented with 10% FBS and penicillin-streptomycin solution were used. The cells were incubated at 37 °C in the air with 5% CO2. […] MTT (M5655), SDS (L3771), and cisplatin (cPT), which was used as a positive control (P4394), were purchased from Sigma-Aldrich (Burlington, MA, USA).
(§2) The cell viability assay leans on the transformation of yellow tetrazolinum bromide MTT solution to the purple derivative of formazan via succinate dehydrogenase, an enzyme present in viable cells. Cells were cultured (1 × 10^4 per well) on a 96-well plate to receive 70% of their confluency. After 24 h and 48 h of incubation with the studied samples (prepared as DMSO solutions directly before the assay), the cells were washed with PBS (phosphate-buffered saline). Subsequently, the MTT solution was added, and the plates were incubated at 37 °C for 2 h. Then, formazan crystals were dissolved in 200 μL of DMSO with Sorensen’s glycine buffer and were shacked for 10 min.

normal fibroblasts = assay: MTT cell viability assay, normal fibroblasts; format: cell-based, human; conditions: read-out: IC50 of viability, Fibroblasts
Method: as §1, §2

[2] = system: SCC-25 squamous carcinoma cells; assay: Morphological profile of SCC-25 cells (microphotographs); format: cell-based, human; conditions: 24 h and 48 h; extracts 100 µg/mL, compounds 100 µM
[3] = system: DNA biosynthesis in SCC-25 cells; assay: [3H]-thymidine incorporation (DNA biosynthesis / proliferation) assay; format: cell-based; conditions: Homo sapiens; 48 h treatment of SCC-25 cells (as stated in abstract); read-out: DNA biosynthesis-inhibitory activity IC50
Method: Considering this fact, an evaluation determining whether the cytotoxicity of the samples was the result of their influence on the biosynthesis of cell DNA was carried out by assessing the capability of intracellular thymidine incorporation.
The proliferation of the tested cells was estimated as [^3H]-thymidine incorporation into the DNA of the cells treated with the studied samples [40]. Firstly, cells (1 × 10^4 per well) were placed in 24-well plates and were allowed to adhere for 24 h. […] After incubation for 24 h and 48 h at 37 °C, the cells were rinsed with PBS and solubilized with 1 mL of 0.1 M NaOH (sodium hydroxide) containing 1% SDS (sodium dodecyl sulfate). Then, radioactivity was recorded in a Liquid Scintillation Analyzer (Perkin-Elmer, Waltham, MA, USA) after correction to 9 mL with scintillation liquid.

melanoma cells = conditions: cited from earlier work
[4] = Homo sapiens, SCC-25, 24 h, MTT, compounds 6.25–200 µM
[5] = Homo sapiens, SCC-25, 48 h, MTT, compounds 6.25–200 µM
[6] = 24 h, MTT, compounds 6.25–200 µM
[7] = 48 h, MTT, compounds 6.25–200 µM

For `COc1ccccc1-c1cc(=O)c2c(O)cccc2o1` [Compound 3, 5-hydroxy-2-(2-methoxyphenyl)-4H-chromen-4-one], the IC50 ([1]; Homo sapiens, SCC-25, 24 h) was > 200 µM and the IC50 ([1]; Homo sapiens, SCC-25, 48 h) was > 200 µM.

For `O=c1cc(-c2ccccc2)oc2cccc(O)c12` [Compound 2, 5-hydroxy-2-phenyl-4H-chromen-4-one], the IC50 [1, 4] was > 200 µM and the IC50 [1, 5] was > 200 µM.

For `N.N.[Cl][Pt][Cl]` [cPT, cisplatin, reference compound], the IC50 [1, 6] was 26.1 ± 1.03 µM, the IC50 [1, 7] was 7.58 ± 0.37 µM and the IC50 (normal fibroblasts; [6]) was > 200 µM. For the same compound, the IC50 (normal fibroblasts; [7]) was 40.5 ± 2.01 µM and the “morphological profile, cell adhesion and number of cells versus untreated” value [2] was “decreased the number of cells”.

In the case of `COc1cccc(O)c1-c1cc(=O)c2c(O)cccc2o1` [Compound 6, 5-hydroxy-2-(2-hydroxy-6-methoxyphenyl)-4H-chromen-4-one], the IC50 [1, 4] is reported as > 200 µM and the IC50 [1, 5] is reported as > 200 µM.

For `COc1ccc(O)c(-c2cc(=O)c3c(O)cccc3o2)c1OC` [Compound 7, 5-hydroxy-2-(6-hydroxy-2,3-dimethoxyphenyl)-4H-chromen-4-one], the IC50 ([1]; Homo sapiens, SCC-25, 24 h) was 78.2 ± 3.25 µM, the IC50 ([1]; Homo sapiens, SCC-25, 48 h) was 40.6 ± 1.65 µM and the IC50 (normal fibroblasts; Homo sapiens, Fibroblast, 24 h) was > 200 µM. For the same compound, the IC50 (normal fibroblasts; Homo sapiens, Fibroblast, 48 h) was > 200 µM, the IC50 [3] was 40.6 ± 1.65 µM and the “morphological profile, cell adhesion and number of cells versus untreated” value [2] was “decreased the number of cells”.

In the case of `COc1ccc(OC)c(-c2cc(=O)c3c(O)cccc3o2)c1OC` [Compound 5, 5-hydroxy-2-(2,3,6-trimethoxyphenyl)-4H-chromen-4-one], the IC50 ([1]; Homo sapiens, SCC-25, 24 h) is reported as > 200 µM and the IC50 ([1]; Homo sapiens, SCC-25, 48 h) is reported as > 200 µM.

In the case of `O=C(CC(=O)c1ccccc1)c1ccccc1` [Compound 1, 1,3-diphenylpropane-1,3-dione], the IC50 ([1]; Homo sapiens, SCC-25, 24 h) is reported as 40 ± 1.89 µM, the IC50 ([1]; Homo sapiens, SCC-25, 48 h) is reported as 29.1 ± 1.45 µM and the IC50 (normal fibroblasts; Homo sapiens, Fibroblast, 24 h) is reported as > 200 µM. The IC50 (normal fibroblasts; Homo sapiens, Fibroblast, 48 h) was > 200 µM, the IC50 [3] was 29.1 ± 1.45 µM and the “morphological profile, cell adhesion and number of cells versus untreated” value [2] was “decreased the number of cells”. The cell cycle effect (melanoma cells) was “cell-cycle deregulation”.

In the case of `COc1cccc(OC)c1-c1cc(=O)c2c(O)cccc2o1` [Compound 4, 5-hydroxy-2-(2,6-dimethoxyphenyl)-4H-chromen-4-one], the IC50 ([1]; Homo sapiens, SCC-25, 24 h) is reported as > 200 µM and the IC50 ([1]; Homo sapiens, SCC-25, 48 h) is reported as > 200 µM.
